Results on three compounds are retold here after patent publication US11622980B2, “Compositions comprising prebiotics and probiotics” (OPTIBIOTIX LIMITED, priority 2017, dated 2023).

Series [1] relates to L. rhamnosus ATCC 53103. The series can be described thus: Pure culture growth screening of L. rhamnosus ATCC 53103 on oligo/polysaccharides. The series is classed as cell-based, Lactobacillus rhamnosus. The text has this:
Commercially available prebiotics and other oligo and polysaccharides were first screened using a fast throughput automated growth culture system under anaerobic conditions to establish ability to support LR growth and define growth rates (1% w/v). The following test substrates had been initially identified for further consideration: Short chain fructooligosaccharides (scFOS), oligofructose P95 (FOS), Orafti ST, Orafti HP, Synergy 1, Bioecolians (glucooligosaccharides), gentiooligosaccharides, fucosyllactose, ß glucan (low/medium/high molecular weight; derived from oats), yeast ß glucan, arabinoxylan, xylooligosaccharides, caseinoglycomacropeptide (cgmp), raffinose, stachyose and Bio-Mos.
The aim of the experiment was to investigate the growth behavior of L. rhamnosus ATCC 53103 under a wide variety of commercially available, oligo and polysaccharides and to evaluate impact of test substrate physical characteristics on screening process and investigate growth on GOS synthesized by L. rhamnosus GR1 β-galactosidases. Results would be evaluated on the basis of: microbial growth (OD-Fermentation time); growth rate [μmax(h^−1)]; and change in optical density (max-min). Growth preferences of Lactobacillus rhamnosus ATCC 53103 would be used to determine target structures and carbohydrates for use as prebiotics for L. rhamnosus species or strains. […]

Series [2] has as its system Lactobacillus/Enterococcus (Lab158). The series can be described thus: FISH of commensal bacteria in pH controlled faecal culture, probe Lab158. It counts as cell-based, healthy adults. As to the method:
(§1) All vessels, run in parallel, were to be inoculated with the same faecal sample and the experiment repeated using a faecal sample from each of six different healthy donors. Samples were to be obtained at inoculation (0 h) and then at 8 and 24 h of fermentation for: determination of LR levels in faecal culture using qPCR; and determination of the impact of each intervention on commensal faecal microbiome composition using FISH to ensure novel prebiotic will not be fermented by undesirable bacteria and ensure selectivity in a complex, competitive culture environment. Analysis targeted numerically dominant and functionally significant faecal bacterial groups including Bacteroides, Clostridium, Eubacterium, Propionibacterium, Bifidobacterium, Lactobacillus, Faecalibacterium, Atopobium, and Desulfovibrio.
(§2) An in vitro assessment of synbiotic efficacy in faecal culture using a pH controlled, anaerobic, temperature controlled cultures. The cultures were inoculated with faecal slurry of each of 6 healthy adults. […]
(§3) Fluorescent in situ hybridisation (FISH) experiments were then conducted to investigate the impact on commensal gut microbiome bacterial populations in faecal culture and the fluorescently labelled micrographs are shown in FIG. 20. FISH is a fully quantitative methodology for determining bacterial concentrations at the genus and species level. […]

Series [3] concerns L. rhamnosus ATCC 53103. Kind of series: qPCR determination of LR concentrations in anaerobic pH controlled faecal batch culture. The series is classed as cell-based, Lactobacillus rhamnosus. The conditions noted are these: for LR concentration (growth) in faecal culture: pH controlled anaerobic faecal batch culture, 1% w/v substrate, LR 5.36×10^4 cfu. As to the method: Synbiotic potential of the selected oligosaccharides/blends was then to be determined in 24 h, anaerobic, pH and temperature controlled micro-scale faecal (10 ml working volume) faecal batch culture models.
The models had been optimised to work at 1% w/v test oligosaccharide concentration and carried out at pH6.8, which is relevant to the distal colon. Conditions in the distal colon (carbohydrate availability, very slow transit time) are more relevant to batch culture design. Fermentations were to be set up in parallel in identical conditions with the only variable being the test oligosaccharides. The following combinations were to be tested in each experimental run: • Faeces (prebiotic negative control) • Faeces+LR (synbiotic negative control) • Faeces+LR+GeOS (gentiooligosaccharides) • Faeces+LR+Cellb (cellobiose) • Faeces+LR+XOS (xylooligosaccharides) • Faeces+GeOS • Faeces+Cellb • Faeces+XOS • Feces+inulin (positive prebiotic control for test prebiotics) • Faeces+FOS (positive prebiotic control for test prebiotics) • Faeces+LR+inulin (positive prebiotic control for test synbiotics) • Faeces+LR+FOS (positive prebiotic control for test synbiotics)
as §1, with “Samples were to be obtained at inoculation (0 h) and then at 8 and 24 h of fermentation for: determination of LR” left out
(§4) An in vitro assessment of synbiotic efficacy in faecal culture using a pH controlled, anaerobic, temperature controlled cultures. The cultures were inoculated with faecal slurry of each of 6 healthy adults. The combinations included: • Faeces (prebiotic negative control) • Faeces+LR (synbiotic negative control) • Faeces+LR+GeOS (gentiooligosaccharides) • Faeces+LR+Cellb (cellobiose) • Faeces+LR+XOS (xylooligosaccharides) • Faeces+GeOS • Faeces+Cellb • Faeces+XOS • Feces+inulin (positive prebiotic control for test prebiotics) • Faeces+FOS (positive prebiotic control for test prebiotics) • Faeces+LR+inulin (positive prebiotic control for test synbiotics) • Faeces+LR+FOS (positive prebiotic control for test synbiotics)
No commensal LR was detected in the prebiotic only cultures (data not shown).
The primers for the real-time PCR determination was as follows: […]

A further series has as its system Ato291 (Atopobium). Kind of series: FISH of commensal bacteria in pH controlled faecal culture, probe Ato291. The series is classed as cell-based, healthy adults. The conditions noted are these: pH controlled anaerobic faecal culture, FIG. 25. As to the method:
as §1, §2, §3

In series [4] the test system is gas producing members of the faecal microbiota. Kind of series: Rate of gas and cumulative gas determination in non-pH controlled faecal culture. The series is classed as cell-based, healthy adults. As to the method:
The aims of this experiment were to determine: (i) the total gas production over a 24 h fermentation period of each of carbohydrate of interest; (ii) the kinetics of gas production (rate) to evaluate the potential of increased abdominal discomfort in vivo upon the ingestion of the carbohydrates of interest; and (iii) the impact of using the selected carbohydrates in combination with LR on total and rate of gas production.
Determination of rate of gas was of particular importance as gas generation at specific time points rather than continuously at low or moderate levels may correlate with abdominal discomfort in vivo and important in relevance to consumer acceptability.
The experiments investigated the potential for gastrointestinal discomfort in vitro, through the determination of rate of gas and cumulative gas production in faecal culture. The cultures were non-pH controlled and six experimental runs were conducted using faeces from six different healthy adults. Headspace gas readings collected every 3 h over a 24 h period for rate of gas determination
The experimental design was as follows: • Faeces • Faeces+L. rhamnosus ATCC 53103 (negative control) • Faeces+Inulin HP (positive prebiotic control) • Faeces+Inulin HP+L. rhamnosus ATCC 53103 (positive synbiotic control) • Faeces+test carbohydrate • Faeces+test carbohydrate+L. rhamnosus ATCC 53103 Lactobacillus rhamnosus ATCC 53103 Test Dose Determination
Intervention dose used in the non-pH controlled gas determination experiments and the pH controlled faecal batch culture experiments was calculated based on the relative amounts of faecal inoculum and LR viable counts in the gut model (low dose, 0.75×10^4 cfu) and the relative concentrations of total bacteria to LR viable counts in the gut model (high dose, 5.36×10^4 cfu). Both doses were tested in the non-pH controlled gas determination faecal cultures to determine the possible role of LR in rate and cumulative gas production.

Series [5] concerns L. rhamnosus ATCC 53103. The series can be described thus: Organic acid (SCFA and lactate) synthesis in pH controlled faecal batch culture. It counts as cell-based, Lactobacillus rhamnosus. The following applies: pH controlled faecal batch cultures with LR.
Excerpt: Lastly, determination of faecal microbiome activity through organic acid (SOFA and lactate) measurement was to be conducted at each sampling point. Information will indicate potential fermentation rates of each novel prebiotic.
as §4

The test system of series [6] is Lactobacillus plantarum 2830 (ECGC 13110402). Kind of series: Pure culture growth of Lactobacillus plantarum 2830 (LP-LDL) on carbohydrate sources. The conditions noted are these: modified MRS, glucose (1% wt/vol) substituted, anaerobic, 37° C., OD 620 nm. The series is classed as cell-based. The protocol:
Similar growth experiments to Example 1 above were conducted on Lactobacillus plantarum 2830 (ECGC 13110402) on a range of substrates including, MRS+LP, Glucose, Lactose, LP GOS, alphaGOS (a proprietary GOS product), Raffinose, Galactose, Cellobiose, FOS (short chain), Sucrose, GOS I (a proprietary GOS product), GOS II (a proprietary GOS product), GOS III (a proprietary GOS product) and Gentiooligosaccharides (GeOS). […] Experiments were carried out under anaerobic conditions on a 96-well microtiter plate system (FLUOstar Omega, BMG LABTECH) in a final volume of 200 μL using an inoculum size 10% (w/v), previously diluted to obtain an initial OD620 nm=0.2. Incubation was conducted under anaerobic conditions at 37° C. with interval shaking at 500 rpm every 5 min. Optical density measurements at 620 nm were employed to assess microbial growth.

Series [7] deals with Bacteroides/Prevotella (Bac303). The series can be described thus: FISH of commensal bacteria in pH controlled faecal culture, probe Bac303. The series is classed as cell-based, healthy adults. The following applies: pH controlled anaerobic faecal culture. The protocol:
as §1, §2, §3

“Also recorded” adds a separate entry of the source. Where two headings read alike, the source gives them in different places.

Regarding `O=C[C@H](O)[C@@H](O)[C@H](O[C@@H]1O[C@H](CO)[C@@H](O)[C@H](O)[C@H]1O)[C@H](O)CO` [cellobiose], the lag phase result in the series on L. rhamnosus ATCC 53103 [1] (pure culture growth curves, 1% (w/v) substrate, FIG. 9) is given as “notably longer lag phase”. For the same compound, the “growth of LR in pure culture” value with L. rhamnosus ATCC 53103 [1] (pure culture, modified MRS, 1% w/v test carbohydrate) was “can grow in pure culture”. Further, the “responders within the 6 faecal donors (Lab158)” value in series [2] (compared to the positive controls (inulin and FOS)) was “More responders”. Further, in series [2] (pH controlled anaerobic faecal culture, six healthy adults, FISH), the “Lab158 (Lactobacillus/Enterococcus) concentration” value was “significant increase”. The “volunteers showing an increase of L. rhamnosus ATCC 53103 concentrations” value in the series on L. rhamnosus ATCC 53103 [3] (0, 10 and 24 h pH controlled faecal batch culture, six volunteers, qPCR) is “Five out of the six”. Moreover, the “LR concentration (growth) in faecal culture” value in the series on L. rhamnosus ATCC 53103 [3] (qPCR) is on record as “growth of LR”. Further, in the series on L. rhamnosus ATCC 53103 [3] (qPCR, listed as Cellobiose), the “LR concentration (growth) in faecal culture” value is “best growth substrate for LR; also recorded: increases in LR concentration”. In addition, in the series with L. rhamnosus ATCC 53103 [3] (pH controlled faecal batch cultures, six donors), the “dependence of the effect on LR on faecal donor” value was “not dependent on faecal donor enterotype”. Moreover, the Ato291 concentrations result in the series with Ato291 (Atopobium) is given as “some increases”. Moreover, in series [4] (24 h non-pH controlled faecal culture, readings every 3 h, relative to inulin), the “rate of gas production” value is listed as “comparable to that of inulin”. For the same compound, in series [4] (24 h non-pH controlled faecal culture, relative to inulin), the cumulative gas production entry is “comparable to that of inulin”. Also, the “donors sensitive to the test oligosaccharide (total gas production)” value (from here on “donors sensitive”) in series [4] (24 h non-pH controlled faecal fermentation, six faecal donors) was “Donors 4 and 7; also recorded: donor 5”. Further, the “LR activity (organic acid synthesis)” value in the series with L. rhamnosus ATCC 53103 [5] is “mediated increases in LR concentration and activity”. In series [6], the “growth rates of LP-LDL” value is recorded as “highest growth rates” and the “growth yields of LP-LDL” value is reported as “highest growth yields”. Also, the “Bacteroides/Prevotella (Bac303) concentration” value in series [7] is reported as “some impact”.

gentiooligosaccharides [GeOS]: in series [4], the “donors sensitive” value is “Donors 4 and 7”; the “rate of gas production” value is on record as “comparable to that of inulin”; the “tolerance by donors (total gas and rate of gas)” value is “tolerated the best by the majority of donors”.

Take xylooligosaccharides [XOS]: in series [4], the “donors sensitive” value is “Donors 4 and 7”; the “rate of gas production” value is listed as “comparable to that of inulin”; the “tolerance by donors (total gas and rate of gas)” value is listed as “tolerated the best by the majority of donors”.
